Where a SMILES comes first, the peptide text is derived from it. Bridges are numbered along the chain shown (N, C = ends). [ ]: non-standard residue; d: D form. The star is where a group is joined. Phe(3,5-F2) = N[C@@H](Cc1cc(F)cc(F)c1)C(=O)O; Heptenoyl(2E) = CCCC/C=C/C(=O)*; aThr = C[C@H](O)[C@H](N)C(=O)O; Pip = O=C(O)[C@@H]1CCCCN1
How the values were obtained:
[1] = target: T1, human mitochondrial CIpP (HsCIpP) (Homo sapiens, UniProt Q16740); assay: Screen of ADEP analogs against HsCIpP: relative degradation (RD) index, casein-FITC degradation relative to E. coli CIpAP; type: biochemical; parameters: key: casein-FITC degradation by HsClpP relative to EcClpAP
T1 construct: made in house; host or cells: E. coli SG1146 (BL21(DE3) ΔclpP::cat)
T1 sequence (Q16740 57-277): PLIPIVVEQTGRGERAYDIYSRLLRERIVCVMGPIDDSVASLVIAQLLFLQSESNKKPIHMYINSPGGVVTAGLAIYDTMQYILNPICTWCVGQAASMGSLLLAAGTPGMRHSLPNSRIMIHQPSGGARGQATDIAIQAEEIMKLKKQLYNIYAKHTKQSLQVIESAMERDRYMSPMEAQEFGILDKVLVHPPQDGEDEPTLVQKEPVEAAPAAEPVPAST
Excerpt: Structural analogs of acyldepsipeptide (ADEP) (Goodreid et al., 2016) that were previously developed as potential antibiotics against bacterial CIpP were screened and assessed for their ability to activate and dysregulate the protease activity of HsCIpP, by measuring their relative degradation (RD) index. Note that ADEP-28 was also previously reported by Carney et al. (2014). Details of the experimental protocol have been described in Leung et al., 2011. The RD index is defined as follows: […]
Δφ is the change in fluorescence after 6 hr of starting the reaction measured using 485 nm excitation and 535 nm emission, which primarily detects the signal from casein-FITC. E. coli CIpAP was used as a benchmark for maximum CIpP proteolytic activity. The CIpP in the numerator can be from any other organism. RD25 measurements refer to the measurement in the presence of 25 μM compound. All ADEP analogs were first screened at 25 μM, and their RD25 scores were calculated using the above formula and method as described in Leung et al., 2011 (FIG. 1A). Those that achieved RD25≥0.87 were screened a second time at 5 μM, followed by calculation of their RD5 scores. The top analogs with RD5≥0.74 were screened a third time at 1 μM, followed by calculation of their RD1 scores (FIG. 1B).
To identify ADEP analogs that allow HsCIpP to degrade folded proteins independent of HsCIpX+ATP (i.e., that activate or dysregulate HsCIpP), the inventors employed the in vitro screening method that was used for identifying small molecule activators of Escherichia coli CIpP (EcCIpP) (Leung et al., 2011). In this approach, the ability of HsCIpP to degrade FITC-labeled casein (casein-FITC) was measured and compared to the ability of EcCIpAP to degrade casein-FITC. This is quantitatively expressed as relative degradation (RD) index (Leung et al., 2011).

HEK293 T-REx WT cells = assay: 3D Structured Illumination Microscopy (3DSIM) of mitochondrial morphology; type: cell-based, human; conditions: 2 μM
Description: HEK293 T-REx WT and CLPP^'1/− cells were seeded on coverslips (Electron Microscopy Sciences) pre-coated with poly-D-lysine hydrobromide (Sigma-Aldrich) in a 12-well culture plate (Falcon). Cells were grown for 24 hours to allow adhesion, followed by treatment with 2 μM ADEP-41 or DMSO in the same manner as described in previous sections, for 24 or 72 hours. At these time points, the original media was removed, and cells were incubated for 30 minutes at 37° C., 5% CO2 with 200 nM MitoTracker Red CMXRos (Molecular Probes) in Opti-MEM™ Reduced Serum Medium (Gibco). Cells were then washed once with PBS and fixed with 4% (v/v) paraformaldehyde (Electron Microscopy Sciences) in PBS for 20 minutes at room temperature.
The fixed cells were then washed twice with PBS, permeabilized with 0.2% (v/v) Triton X-100 (BioShop) in PBS for 10 minutes at room temperature and incubated with 2 μg/mL Hoechst 33342 (Molecular Probes) in PBS for 10 minutes at room temperature to counterstain nuclei. Coverslips were then washed three times with PBS+0.05% (v/v) Tween-20 and mounted on microscope glass slides (VWR) using 0.5% (w/v) propyl gallate (Sigma-Aldrich) dissolved in glycerol as the mounting medium.
3DSIM data were collected on the ELYRA PS.1 super resolution microscope (Carl Zeiss Microscopy) using a 63× (1.4 NA) Plan-Apochromatic oil immersion objective (Carl Zeiss Microscopy) and a 1.6× Optovar. […]

Structure (SMILES): CCCC/C=C/C(=O)N[C@@H](Cc1cc(F)cc(F)c1)C(=O)N[C@@H]1C(=O)N2CCC[C@H]2C(=O)N2CCCC[C@H]2C(=O)N[C@@H](C)C(=O)N2CCC[C@H]2C(=O)O[C@H]1C [ADEP-41] ({Heptenoyl(2E)}-[Phe(3,5-F2)][aThr]P[Pip]AP; ester 2-C)
- Hs RD1 ([1]; RD value at 1 μM of the ADEP analog): 0.79
- Hs RD5 ([1]; RD value at 5 μM of the ADEP analog): 0.93
- Hs RD25 ([1]; RD value at 25 μM of the ADEP analog, measure of ability to activate HsCIpP): 0.96
- mitochondrial fragmentation (HEK293 T-REx WT cells; 24 hours): clear signs of mitochondrial fragmentation
- mitochondrial fragmentation (HEK293 T-REx WT cells; 72 hours): very significant

Source: US20210171576A1, “METHODS FOR TREATING CANCER WITH ACYLDEPSIPEPTIDE ANALOGS” (priority 2018, published 2021)
